System: colon 26 (mouse colon cancer)
Assay: Anti-tumor effect on colon 26 (mouse colon cancer), subcutaneous transplant in CDF1 mice
Type: in vivo
Details: intravenously from day 3 on for 5 days, tumor volume ratio measured day 8, CDF1 male mice, T/C of not more than 42% judged effective
Protocol: Test Example [Anti-tumor effect on colon 26 (mouse colon cancer)]
A test was carried out according to the procedure disclosed in Cancer Res., 50. 2290~2295 (1990).
Colon 26 tumor tissue subcultured and transplanted on BALB/c female mice was excised from tumor-bearing mice by incision on the 11th day after the transplantation, and after removal of connective tissues it was minced with scissors. Then, 5 ml of Hank's balanced salt solution was added to 1 g of the tumor, followed by homogenization in a Luer-Lok syringe. After filtration through silicone gauze, cell number in the filtrate cell solution was counted by a hemocytometer and adjusted to 1.0 ×10^6 cells/ml. The resulting cell suspension was subcutaneously transplanted to CDF1 male mice (aged 6 weeks, Charles River, Japan Co.) at the right axillary site at a dose of 0.2 ml/mouse to provide test tumor-bearing mice with each group consisting of 8 mice. The day of cell transplantation was designated as "day 0". TI-356 was dissolved into a surfactant (a solution of HCO 60: polyethyleneglycol =2:1), followed by slow addition of physiological saline thereto to prepare test solutions of various concentrations with the ultimate concentration being about 0.5%. The test solutions were intravenously administered from "day 3" on for 5 days.
RA-VII was used as control.
Tumor propagation-inhibiting effect was determined by measuring the principal axis and the conjugate axis of tumor by a vernier caliper on the day following the completion to administer the compound (day 8) and calculating a tumor volume, a tumor volume ratio and T/C (%) according to the following formulae. T/C of not more than 42% was judged to be effective. [formula]

Structure (SMILES) | T/C (%) (dose 1.6 mg/kg) | T/C (%) (dose 3.13 mg/kg) | T/C (%) (dose 6.25 mg/kg) | T/C (%) (dose 0.8 mg/kg)
COc1ccc(C[C@H]2C(=O)N[C@@H](C)C(=O)N(C)[C@H]3Cc4ccc(cc4)Oc4cc(ccc4OC)C[C@@H](C(=O)N[C@H](C)C(=O)N[C@@H](C)C(=O)N2C)N(C)C3=O)cc1 [RA-VII] | 55.8 | 48.0 | 49.0 | –
COc1ccc(C[C@H]2C(=O)N[C@@H](C)C(=O)N(C)C3Cc4ccc(cc4)Oc4cc(ccc4OCCN(C(C)C)C(C)C)CC(C(=O)N[C@H](C)C(=O)N[C@@H](C)C(=O)N2C)N(C)C3=O)cc1 (stereo partly drawn) [TI-356] | 41.5 | 34.5 | – | 42.1

From patent publication US5922838A, “Cyclic hexapeptide compounds” (Taisho Pharmaceutical Co., Ltd., priority 1995, dated 1999)
